Compound: O=C1NC(=O)[C@@H](c2cn3c4c(cccc24)CCC3)[C@@H]1c1c[nH]c2ccccc12 [Tivantinib] + O=C(CCCCCCC(=O)Nc1ccccc1)NO [Vorinostat] (partner 1 µM)
Assay: relative viability (nuclei count vs DMSO), 5 days (fraction); higher = more cells survive
Settings: first compound 0.01 µM
Method in brief: (§1)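 Relative viability divides the nuclei count in treated wells by that in vehicle wells. Lung cancer cell lines were seeded in 1536-well plates, dosed by pin tool the next day, and fixed and stained after 5 days in one step with final 0.05% Triton X-100, 1% formaldehyde and 1 ug/ml Hoechst. Dosing was a single drug or a fixed anchor-drug dose plus five library-drug doses (not always all listed) in √10 steps, and values are medians of duplicate plates imaged at 4×.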

In order of rising relative viability:
1. LK-2  0.219
2. HARA  0.446
3. HCC-78  0.48
4. EPLC-272H  0.493
5. SW 900  0.501
6. LU99A  0.514
7. COR-L23  0.528
8. EMC-BAC-2  0.532
9. NCI-H647  0.541
10. NCI-H1651  0.554
11. NCI-H1944  0.565
12. BEN  0.591
13. NCI-H2228  0.639
14. NCI-H596  0.687
15. LC-2-ad  0.694
16. NCI-H358  0.704
17. LCLC-97TM1  0.71
18. NCI-H2126  0.723
19. NCI-H2087  0.724
20. NCI-H838  0.728
21. NCI-H2009  0.735
22. NCI-H2342  0.739
23. NCI-H1395  0.749
24. LXF-289  0.756
25. ChaGo-K-1  0.76
26. NCI-H1734  0.8
27. HCC-15  0.827
28. PC-14  0.832
29. NCI-H1793  0.851
30. NCI-H2170  0.852
31. COR-L 105  0.89
32. NCI-H522  0.906
33. IA-LM  1.01
34. HCC-44  1.09
35. NCI-H3122  1.09
36. NCI-H727  1.11
37. SK-MES-1  1.16
38. ABC-1  1.44

Same assay, conditions: first compound 0.03162 µM

In order of rising relative viability:
1. LCLC-97TM1  0.284
2. LK-2  0.34
3. HCC-78  0.408
4. LU99A  0.438
5. SW 900  0.438
6. NCI-H1648  0.445
7. NCI-H1944  0.448
8. NCI-H2126  0.482
9. COR-L23  0.509
10. HARA  0.512
11. EMC-BAC-2  0.522
12. NCI-H2228  0.527
13. BEN  0.566
14. NCI-H358  0.567
15. NCI-H596  0.589
16. NCI-H647  0.598
17. EPLC-272H  0.599
18. NCI-H1651  0.612
19. NCI-H2009  0.672
20. NCI-H2087  0.672
21. LC-2-ad  0.694
22. ChaGo-K-1  0.704
23. NCI-H838  0.724
24. LXF-289  0.725
25. NCI-H1734  0.745
26. NCI-H522  0.754
27. NCI-H2342  0.766
28. COR-L 105  0.786
29. NCI-H1395  0.802
30. NCI-H2170  0.812
31. HCC-15  0.82
32. PC-14  0.821
33. IA-LM  0.826
34. NCI-H1793  0.875
35. NCI-H3122  0.943
36. SK-MES-1  0.945
37. HCC-44  1.07
38. NCI-H727  1.22
39. ABC-1  1.32

Same assay, conditions: first compound 0.1 µM

In order of rising relative viability:
1. LK-2  0.217
2. HCC-78  0.346
3. EPLC-272H  0.41
4. COR-L23  0.426
5. LU99A  0.456
6. EMC-BAC-2  0.496
7. NCI-H1944  0.501
8. BEN  0.528
9. NCI-H1648  0.528
10. NCI-H1651  0.559
11. NCI-H647  0.579
12. SW 900  0.593
13. HARA  0.607
14. NCI-H596  0.636
15. NCI-H2228  0.651
16. LC-2-ad  0.655
17. NCI-H358  0.658
18. NCI-H1793  0.663
19. LCLC-97TM1  0.671
20. NCI-H838  0.693
21. ChaGo-K-1  0.704
22. NCI-H2087  0.722
23. COR-L 105  0.722
24. NCI-H1395  0.722
25. LXF-289  0.733
26. NCI-H2170  0.74
27. NCI-H2009  0.746
28. PC-14  0.755
29. NCI-H1734  0.768
30. NCI-H2126  0.772
31. NCI-H2342  0.788
32. HCC-15  0.795
33. IA-LM  0.87
34. NCI-H3122  0.947
35. NCI-H522  0.973
36. ABC-1  1.01
37. SK-MES-1  1.06
38. HCC-44  1.1
39. NCI-H727  1.35

Same assay, conditions: first compound 0.3162 µM

In order of rising relative viability:
1. NCI-H358  0.233
2. NCI-H1648  0.272
3. EPLC-272H  0.296
4. LK-2  0.311
5. HCC-78  0.337
6. PC-14  0.356
7. HARA  0.434
8. SW 900  0.444
9. LU99A  0.47
10. NCI-H1793  0.474
11. NCI-H2087  0.477
12. NCI-H1944  0.492
13. NCI-H2126  0.512
14. BEN  0.515
15. NCI-H596  0.531
16. NCI-H1651  0.542
17. NCI-H522  0.548
18. EMC-BAC-2  0.582
19. COR-L23  0.608
20. NCI-H2342  0.614
21. NCI-H1395  0.666
22. NCI-H2009  0.715
23. LC-2-ad  0.715
24. ChaGo-K-1  0.717
25. NCI-H2228  0.733
26. COR-L 105  0.771
27. NCI-H838  0.776
28. LXF-289  0.778
29. HCC-15  0.793
30. NCI-H1734  0.818
31. LCLC-97TM1  0.833
32. IA-LM  0.895
33. SK-MES-1  0.935
34. NCI-H647  0.962
35. HCC-44  1.07
36. NCI-H3122  1.11
37. ABC-1  1.21

Compound: O=C1NC(=O)[C@@H](c2cn3c4c(cccc24)CCC3)[C@@H]1c1c[nH]c2ccccc12 [Tivantinib] + Cc1nc(Nc2ncc(C(=O)Nc3c(C)cccc3Cl)s2)cc(N2CCN(CCO)CC2)n1 [Dasatinib] (partner 0.075 µM)
Assay: as above
Settings: first compound 0.01 µM
Method in brief: as §1

In order of falling relative viability:
1. NCI-H522  0.902
2. NCI-H1792  0.902
3. NCI-H2087  0.83
4. NCI-H3122  0.808
5. LCLC-97TM1  0.796
6. NCI-H2170  0.659
7. ABC-1  0.629
8. HCC-15  0.609
9. ChaGo-K-1  0.584
10. NCI-H2126  0.583
11. SW 900  0.582
12. LC-2-ad  0.554
13. LU99A  0.533
14. NCI-H727  0.529
15. SK-MES-1  0.521
16. COR-L23  0.498
17. NCI-H596  0.486
18. NCI-H1623  0.464
19. NCI-H1563  0.453
20. NCI-H1734  0.425
21. COR-L 105  0.42
22. HCC-78  0.416
23. EPLC-272H  0.409
24. NCI-H1395  0.396
25. NCI-H1651  0.386
26. NCI-H2009  0.381
27. EMC-BAC-2  0.35
28. NCI-H1793  0.345
29. NCI-H838  0.324
30. NCI-H2342  0.31
31. LXF-289  0.302
32. HARA  0.293
33. BEN  0.293
34. PC-14  0.29
35. LK-2  0.281
36. NCI-H1944  0.219
37. NCI-H647  0.188
38. NCI-H358  0.128

Same assay, conditions: first compound 0.03162 µM

In order of rising relative viability:
1. NCI-H358  0.165
2. NCI-H647  0.194
3. NCI-H1944  0.196
4. NCI-H2009  0.255
5. LXF-289  0.261
6. PC-14  0.27
7. COR-L 105  0.287
8. NCI-H838  0.296
9. NCI-H2342  0.296
10. HARA  0.302
11. EMC-BAC-2  0.307
12. BEN  0.308
13. NCI-H1395  0.339
14. EPLC-272H  0.343
15. NCI-H727  0.344
16. NCI-H1651  0.354
17. HCC-78  0.376
18. SK-MES-1  0.386
19. NCI-H1793  0.419
20. NCI-H1623  0.424
21. NCI-H1563  0.443
22. NCI-H2170  0.469
23. NCI-H1734  0.472
24. NCI-H2228  0.484
25. LC-2-ad  0.527
26. COR-L23  0.542
27. NCI-H596  0.543
28. HCC-15  0.591
29. ChaGo-K-1  0.604
30. LCLC-97TM1  0.61
31. LU99A  0.64
32. NCI-H2126  0.676
33. NCI-H522  0.712
34. NCI-H1792  0.714
35. SW 900  0.735
36. ABC-1  0.742
37. NCI-H3122  0.808
38. NCI-H2087  0.942

Same assay, conditions: first compound 0.1 µM

In order of falling relative viability:
1. LCLC-97TM1  0.869
2. NCI-H522  0.831
3. NCI-H2087  0.825
4. NCI-H3122  0.788
5. NCI-H1792  0.675
6. LC-2-ad  0.641
7. NCI-H596  0.635
8. ChaGo-K-1  0.612
9. NCI-H2126  0.594
10. HCC-15  0.587
11. ABC-1  0.566
12. NCI-H2170  0.558
13. NCI-H2228  0.539
14. LU99A  0.527
15. NCI-H1563  0.514
16. NCI-H1623  0.494
17. COR-L23  0.48
18. SW 900  0.467
19. NCI-H1395  0.437
20. NCI-H1734  0.436
21. NCI-H1651  0.391
22. BEN  0.382
23. HCC-78  0.378
24. NCI-H1793  0.376
25. LK-2  0.341
26. COR-L 105  0.334
27. NCI-H2342  0.322
28. SK-MES-1  0.309
29. NCI-H727  0.306
30. NCI-H2009  0.301
31. HARA  0.299
32. EPLC-272H  0.293
33. NCI-H838  0.274
34. PC-14  0.234
35. NCI-H1944  0.211
36. LXF-289  0.19
37. EMC-BAC-2  0.183
38. NCI-H647  0.149
39. NCI-H358  0.143

Same assay, conditions: first compound 0.3162 µM

In order of falling relative viability:
1. NCI-H2087  0.913
2. NCI-H522  0.864
3. LCLC-97TM1  0.824
4. NCI-H3122  0.686
5. HCC-15  0.639
6. NCI-H596  0.619
7. SW 900  0.611
8. NCI-H2126  0.565
9. ChaGo-K-1  0.564
10. ABC-1  0.516
11. COR-L23  0.5
12. NCI-H1792  0.481
13. NCI-H1734  0.478
14. LC-2-ad  0.477
15. NCI-H1651  0.475
16. NCI-H1395  0.434
17. LU99A  0.402
18. NCI-H1563  0.399
19. HCC-78  0.377
20. BEN  0.359
21. NCI-H2228  0.352
22. NCI-H1793  0.346
23. EMC-BAC-2  0.343
24. NCI-H2342  0.31
25. LK-2  0.301
26. NCI-H2009  0.285
27. NCI-H838  0.276
28. NCI-H727  0.275
29. HARA  0.225
30. COR-L 105  0.216
31. NCI-H1944  0.208
32. NCI-H647  0.195
33. SK-MES-1  0.186
34. EPLC-272H  0.176
35. LXF-289  0.175
36. NCI-H358  0.109
37. PC-14  0.0998

Compound: CC1(COc2ccc3c(c2)ncn3-c2ccc3cccc(N4CCC(N)CC4)c3n2)COC1 [Crenolanib] + Nc1nc2[nH]cc(CCc3ccc(C(=O)N[C@@H](CCC(=O)O)C(=O)O)cc3)c2c(=O)[nH]1 [Pemetrexed] (partner 0.2 µM)
Assay: as above
Settings: first compound 0.01 µM
Method in brief: as §1

In order of rising relative viability:
1. PC-14  0.137
2. LCLC-97TM1  0.192
3. NCI-H838  0.247
4. EPLC-272H  0.322
5. NCI-H1734  0.441
6. NCI-H1651  0.573
7. NCI-H522  0.976
8. NCI-H2009  1
